Source: patent publication US9615577B2, “Herbicidally active cyclic dione compounds, or derivatives therefor, substituted by a phenyl which has an alkynyl-containing substituent” (Syngenta Limited, priority 2012, dated 2017)

Assays:
Type in all cases: in vivo
[1] = system: Digitaria sanguinalis (DIGSA); test: Test 1B glasshouse assay for herbicidal activity, post-emergence; conditions: 360 h; for pest or weed control at 60 g/ha: 60 g/ha application rate
Procedure: (§1) Seeds of a variety of monocotyledonous and dicotyledonous test plants are sown in standard soil in pots. The plants are cultivated for one day (for pre-emergence) or for about 12 days (range=10-13 days) (for post-emergence) under controlled conditions in a glasshouse (warm climate species at 24/18° C., cool climate species at 20/16° C., both at day/night; 16 hours light; 65% humidity).
(§2) An “instant formulation”, known as the “IF50”, containing 50 g/liter (i.e. 5% w/v) of the “technical” (i.e. unformulated) active ingredient is prepared by dissolving the active ingredient in a mixture of organic solvents and emulsifier, details of which are provided in the Table below. This IF50 is then mixed with a small, variable amount of acetone to aid dissolution, before addition of a 0.2% v/v aqueous solution of the adjuvant X-77 (which is a mixture of alkyl aryl polyoxyethylene glycols and free fatty acids in isopropanol, CAS Registry number 11097-66-8), as the aqueous diluent, to form an aqueous spray solution which contains a predetermined concentration of the active ingredient (which varies depending on the application rate of the active ingredient to the plants) and 0.2% v/v of the adjuvant X-77. This aqueous spray solution is then sprayed onto the plants, after one day's cultivation (for pre-emergence) or after about 12 days' cultivation (for post-emergence).
(§3) The test plants are then grown on, in a glasshouse (greenhouse) under controlled conditions (at either 24/18° C. or 20/16° C. (day/night) as mentioned above; 16 hours light; 65% humidity) and are watered twice daily. Either 15 days after application of the herbicide (15 DAA) (for post-emergence), or 20 days after application of the herbicide (20 DAA) (for pre-emergence), the test plants are evaluated visually, and an assessed percentage phytotoxicity score is given for each herbicidal application on each plant species (where 100%=total damage to plant; 0%=no damage to plant).
(§4) Warm climate (“warm season”) grassy monocotyledonous weeds: Setaria faberi (SETFA), SORVU (Sorghum bicolor (L.) Moench ssp. Bicolor, or Sorghum vulgare Pers.), Digitaria sanguinalis (DIGSA), Echinochloa crus-galli (ECHCG), and Brachiaria plantaginea (BRAPL).

[2] = system: Setaria faberi (SETFA); test: as above; conditions: 360 h; for pest or weed control at 60 g/ha: 60 g/ha application rate
Procedure: as §1, §2, §3, §4

[3] = system: SORVU (Sorghum bicolor (L.) Moench ssp. Bicolor, or Sorghum vulgare Pers.); test: as above; conditions: 360 h; for pest or weed control at 60 g/ha: 60 g/ha application rate
Procedure: as §1, §2, §3, §4

[4] = system: Brassica napus (BRSNN, rape); test: Test 1B glasshouse assay for herbicidal activity, pre-emergence; conditions: 480 h, 500 g/ha, 20 DAA, read-out: percentage phytotoxicity BRSNN
Procedure: as §1, §2, §3
(§5) Cool climate crop plants: Triticum aestivum (TRZAW, winter wheat), Brassica napus (BRSNN, rape, also called oilseed rape or rapeseed), Beta vulgaris (BEAVA, sugar beet).

[5] = system: Beta vulgaris (BEAVA, sugar beet); test: as above; conditions: 480 h, 500 g/ha, 20 DAA, read-out: percentage phytotoxicity BEAVA
Procedure: as §1, §2, §3, §5

[6] = system: Triticum aestivum (TRZAW, winter wheat); test: as above; conditions: 480 h, 500 g/ha, 20 DAA, read-out: percentage phytotoxicity TRZAW
Procedure: as §1, §2, §3, §5

[7] = system: Glycine max (GLXMA, soybean); test: Test 1B glasshouse assay for herbicidal activity, post-emergence; conditions: 360 h; for plant injury at 60 g/ha: 60 g/ha application rate
Procedure: as §1, §2, §3
(§6) Warm climate crop plants: Glycine max (GLXMA, soybean).

[8] = system: Glycine max (GLXMA, soybean); test: Test 1B glasshouse assay for herbicidal activity, pre-emergence; conditions: 480 h, 500 g/ha, 20 DAA, read-out: percentage phytotoxicity GLXMA
Procedure: as §1, §2, §3, §6

[9] = system: Echinochloa crus-galli (ECHCG); test: Test 1A glasshouse assay for herbicidal activity, post-emergence; conditions: 312 h, evaluated after 13 days, read-out: percentage phytotoxicity ECHCG
In short: (§7)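 Test plants grew from seed in standard soil under controlled glasshouse conditions (24/16 °C, 14 h light, 65% humidity) and received an aqueous acetone (50:50) spray with 0.5% Tween 20, either one day after sowing or after eight days. Damage was rated visually as percent phytotoxicity 13 days later.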

[10] = system: Amaranthus retroflexus (AMARE); test: as above; conditions: 312 h, evaluated after 13 days, read-out: percentage phytotoxicity AMARE
In short: as §7

[11] = system: Alopecurus myosuroides (ALOMY); test: as above; conditions: 312 h, evaluated after 13 days, read-out: percentage phytotoxicity ALOMY
In short: as §7

[12] = system: Setaria faberi (SETFA); test: as above; conditions: 312 h, evaluated after 13 days, read-out: percentage phytotoxicity SETFA
In short: as §7

[13] = system: Echinochloa crus-galli (ECHCG); test: Test 1B glasshouse assay for herbicidal activity, pre-emergence; conditions: 480 h, 500 g/ha, 20 DAA, read-out: percentage phytotoxicity ECHCG
Procedure: as §1, §2, §3, §4

[14] = system: Digitaria sanguinalis (DIGSA); test: as above; conditions: 480 h, 500 g/ha, 20 DAA, read-out: percentage phytotoxicity DIGSA
Procedure: as §1, §2, §3, §4

[15] = system: Alopecurus myosuroides (ALOMY); test: Test 1B glasshouse assay for herbicidal activity, post-emergence; conditions: 360 h; for pest or weed control at 60 g/ha: 60 g/ha application rate
Procedure: as §1, §2, §3
(§8) Cool climate (“cool season”) grassy monocotyledonous weeds: Alopecurus myosuroides (ALOMY), Avena fatua (AVEFA), Lolium perenne (LOLPE).

[16] = system: Lolium perenne (LOLPE); test: as above; conditions: 360 h; for pest or weed control at 60 g/ha: 60 g/ha application rate
Procedure: as §1, §2, §3, §8

[17] = system: Avena fatua (AVEFA); test: as above; conditions: 360 h; for pest or weed control at 60 g/ha: 60 g/ha application rate
Procedure: as §1, §2, §3, §8

Q: With `CC#Cc1ccc(C2C(=O)C3CCC(C3)C2=O)c(C)c1` (single isomer, unassigned) [Compound A-2] as the molecule, how does the pest or weed control at 60 g/ha [1] read?
A: 100%

Q: And the pest or weed control at 60 g/ha [2]?
A: 100%

Q: And the pest or weed control at 60 g/ha [3]?
A: 80%

Q: What about the plant injury at 500 g/ha [4] of the same molecule?
A: 40%

Q: What about the plant injury at 500 g/ha [5] of the same molecule?
A: 0%

Q: And the plant injury at 500 g/ha [6]?
A: 60%

Q: And the plant injury at 60 g/ha [7]?
A: 40%

Q: And the plant injury at 500 g/ha [8]?
A: 0%

Q: And the pest or weed control at 250 g/ha [9]?
A: 100%

Q: What about the pest or weed control at 250 g/ha [10] of the same molecule?
A: 0%

Q: What about the pest or weed control at 250 g/ha [11] of the same molecule?
A: 90%

Q: What about the pest or weed control at 250 g/ha [12] of the same molecule?
A: 100%

Q: And the pest or weed control at 500 g/ha [13]?
A: 100%

Q: What about the pest or weed control at 500 g/ha [14] of the same molecule?
A: 100%

Q: What about the pest or weed control at 60 g/ha [15] of the same molecule?
A: 90%

Q: What about the pest or weed control at 60 g/ha [16] of the same molecule?
A: 80%

Q: And the pest or weed control at 60 g/ha [17]?
A: 80%

Q: Which results are given for `CC#Cc1ccc(C2C(=O)C(C)(C)OC(C)(C)C2=O)c(C)c1` [Compound A-1]?
A: pest or weed control at 60 g/ha [1]: 80%; pest or weed control at 60 g/ha [2]: 70%; pest or weed control at 60 g/ha [3]: 0%; plant injury at 500 g/ha [4]: 60%; plant injury at 500 g/ha [5]: 10%; plant injury at 500 g/ha [6]: 40%; plant injury at 60 g/ha [7]: 70%; plant injury at 500 g/ha [8]: 10%; pest or weed control at 250 g/ha [9]: 100%; pest or weed control at 250 g/ha [10]: 10%; pest or weed control at 250 g/ha [11]: 90%; pest or weed control at 250 g/ha [12]: 70%; pest or weed control at 500 g/ha [13]: 100%; pest or weed control at 500 g/ha [14]: 60%; pest or weed control at 60 g/ha [15]: 80%; pest or weed control at 60 g/ha [16]: 80%; pest or weed control at 60 g/ha [17]: 60%

Q: Which results are given for `CC#Cc1cc(C)c(C2C(=O)C3CCC(C3)C2=O)c(C)c1` (stereo not shown) [Compound A-5]?
A: pest or weed control at 30 g/ha ([1]; 30 g/ha application rate): 90%; pest or weed control at 60 g/ha [1]: 100%; pest or weed control at 125 g/ha ([1]; 125 g/ha application rate): 100%; pest or weed control at 500 g/ha ([1]; 500 g/ha application rate): 100%; pest or weed control at 30 g/ha ([2]; 30 g/ha application rate): 80%; pest or weed control at 60 g/ha [2]: 90%; pest or weed control at 125 g/ha ([2]; 125 g/ha application rate): 100%; pest or weed control at 500 g/ha ([2]; 500 g/ha application rate): 100%; pest or weed control at 30 g/ha ([3]; 30 g/ha application rate): 70%; pest or weed control at 60 g/ha [3]: 80%; pest or weed control at 125 g/ha ([3]; 125 g/ha application rate): 100%; pest or weed control at 500 g/ha ([3]; 500 g/ha application rate): 100%; plant injury at 500 g/ha [4]: 90%; plant injury at 500 g/ha [5]: 0%; plant injury at 500 g/ha [6]: 20%; plant injury at 30 g/ha ([7]; 30 g/ha application rate): 10%; plant injury at 60 g/ha [7]: 20%; plant injury at 125 g/ha ([7]; 125 g/ha application rate): 30%; plant injury at 500 g/ha ([7]; 500 g/ha application rate): 40%; plant injury at 500 g/ha [8]: 0%; pest or weed control at 30 g/ha ([9]; 30 g/ha): 100%; pest or weed control at 250 g/ha [9]: 100%; pest or weed control at 30 g/ha ([10]; 30 g/ha): 10%; pest or weed control at 250 g/ha [10]: 0%; pest or weed control at 30 g/ha ([11]; 30 g/ha): 80%; pest or weed control at 250 g/ha [11]: 100%; pest or weed control at 30 g/ha ([12]; 30 g/ha): 70%; pest or weed control at 250 g/ha [12]: 100%; pest or weed control at 500 g/ha [13]: 100%; pest or weed control at 500 g/ha [14]: 100%; pest or weed control at 30 g/ha ([15]; 30 g/ha application rate): 70%; pest or weed control at 60 g/ha [15]: 80%; pest or weed control at 125 g/ha ([15]; 125 g/ha application rate): 80%; pest or weed control at 500 g/ha ([15]; 500 g/ha application rate): 90%; pest or weed control at 30 g/ha ([16]; 30 g/ha application rate): 30%; pest or weed control at 60 g/ha [16]: 70%; pest or weed control at 125 g/ha ([16]; 125 g/ha application rate): 80%; pest or weed control at 500 g/ha ([16]; 500 g/ha application rate): 80%; pest or weed control at 30 g/ha ([17]; 30 g/ha application rate): 30%; pest or weed control at 60 g/ha [17]: 30%; pest or weed control at 125 g/ha ([17]; 125 g/ha application rate): 80%; pest or weed control at 500 g/ha ([17]; 500 g/ha application rate): 80%
